Target: T1, IDO1 (Homo sapiens, UniProt P14902)
T1 construct: HeLa cells were treated with a test compound in the presence of IFNγ, which induces IDO1 expression; host or cells: H1-HeLa cells, IDO1 induced with IFNγ
Assay: Cell-based (HeLa) assay for measurement of IDO1 inhibition (kynurenine levels in supernatant after IFNγ induction)
Conditions: HeLa cells, geometric mean of a minimum of four determinations
Method in brief: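 IDO1 activity is read as kynurenine released into the medium, detected with Ehrlich's reagent (p-dimethylaminobenzaldehyde) at 480 nm after TCA treatment. HeLa cells were exposed 48 h to compounds in 0.5% DMSO alongside IFNγ induction. Values normalized to no-IFNγ and IFNγ controls; four-parameter EC50 given as geometric mean of ≥4 determinations.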

[1] = IFNγ-induced IDO1, kynurenine in supernatant, 48 hour incubation
[2] = IFNγ-induced IDO1, kynurenine in supernatant after 48 hour incubation

T1 sequence (P14902 whole entry): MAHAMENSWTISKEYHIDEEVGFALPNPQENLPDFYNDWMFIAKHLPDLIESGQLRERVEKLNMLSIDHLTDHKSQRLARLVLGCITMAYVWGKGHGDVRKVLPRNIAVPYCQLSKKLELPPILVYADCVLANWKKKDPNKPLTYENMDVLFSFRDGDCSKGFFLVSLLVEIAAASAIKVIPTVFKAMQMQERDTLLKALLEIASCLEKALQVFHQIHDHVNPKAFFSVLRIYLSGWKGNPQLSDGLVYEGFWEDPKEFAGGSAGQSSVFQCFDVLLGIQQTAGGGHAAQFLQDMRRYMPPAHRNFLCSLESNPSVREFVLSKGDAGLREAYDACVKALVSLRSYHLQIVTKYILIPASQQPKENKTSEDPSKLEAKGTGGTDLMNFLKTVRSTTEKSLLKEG

SMILES	EC50 [1]	EC50 [2]
CN(C)CCCNc1nc2c(F)c(F)cc(/C(=N/O)Nc3cccc(Br)c3)c2[nH]1 [Example 386, N-(3-bromophenyl)-2-((3-(dimethylamino)propyl)amino)-4,5-difluoro-N′-hydroxy-1H-benzo[d]imidazole-7-carboximidamide]	559 nM	
O/N=C(\Nc1ccc(F)c(Cl)c1)c1ccnc2nc(CNc3ccccc3)[nH]c12 [Example 128, N-(3-Chloro-4-fluorophenyl)-N′-hydroxy-2-((phenylamino)methyl)-1H-imidazo[4,5-b]pyridine-7-carboximidamide]		2400 nM
CC(CNc1nc2c(F)c(F)cc(/C(=N/O)Nc3ccc(F)c(Cl)c3)c2[nH]1)CN(C)C (stereo not drawn) [Example 352, N-(3-chloro-4-fluorophenyl)-2-((3-(dimethylamino)-2-methylpropyl)amino)-4,5-difluoro-N′-hydroxy-1H-benzo[d]imidazole-7-carboximidamide]	437 nM	
COc1cccc(N/C(=N\O)c2ccnc3nc[nH]c23)c1 [Example 92, N′-Hydroxy-N-(3-methoxyphenyl)-1H-imidazo[4,5-b]pyridine-7-carboximidamide]		3890 nM
COC1CN(CCNc2nc3c(F)c(F)cc(/C(=N/O)Nc4ccc(F)c(Cl)c4)c3[nH]2)C1 [Example 456, N-(3-chloro-4-fluorophenyl)-4,5-difluoro-N′-hydroxy-2-((2-(3-methoxyazetidin-1-yl)ethyl)amino)-1H-benzo[d]imidazole-7-carboximidamide]	274 nM	
O/N=C(\Nc1cccc(C(F)(F)F)c1)c1ccnc2nc[nH]c12 [Example 73, N′-Hydroxy-N-(3-(trifluoromethyl)phenyl)-1H-imidazo[4,5-b]pyridine-7-carboximidamide]		373 nM
O/N=C(\Nc1ccc(F)c(Br)c1)c1ccnc2nc(NCCN3CCOCC3)[nH]c12 [Example 238, N-(3-bromo-4-fluorophenyl)-N′-hydroxy-2-((2-morpholinoethyl)amino)-1H-imidazo[4,5-b]pyridine-7-carboximidamide]		853 nM
CN(C)CCc1nc2nccc(/C(=N/O)Nc3cccc(Cl)c3)c2[nH]1 [Example 264, N-(3-chlorophenyl)-2-(2-(dimethylamino)ethyl),N′-hydroxy-1H-imidazo[4,5-b]pyridine-7-carboximidamide]		722 nM
O/N=C(\Nc1ccc(F)c(C#CC2CC2)c1)c1ccnc2nc[nH]c12 [Example 79, N-(3-(Cyclopropylethynyl)-4-fluorophenyl)-N′-hydroxy-1H-imidazo[4,5-b]pyridine-7-carboximidamide]		3220 nM
CNCc1nc2nccc(/C(=N/O)Nc3ccc(F)c(Cl)c3)c2[nH]1 [Example 178, N-(3-Chloro-4-fluorophenyl)-N′-hydroxy-2-((methylamino)methyl)-1H-imidazo[4,5-b]pyridine-7-carboximidamide]		1480 nM
Cn1ccnc1CCNc1nc2c(F)c(F)cc(/C(=N/O)Nc3ccc(F)c(Cl)c3)c2[nH]1 [Example 344]	3060 nM	
CN1CCCC1CCNc1nc2c(F)c(F)cc(/C(=N/O)Nc3ccc(F)c(Cl)c3)c2[nH]1 (stereo not drawn) [Example 354, N-(3-chloro-4-fluorophenyl)-4,5-difluoro-N′-hydroxy-2-((2-(1-methylpyrrolidin-2-yl)ethyl)amino)-1H-benzo[d]imidazole-7-carboximidamide]	1210 nM	
NCc1nc2nccc(/C(=N/O)Nc3ccc(F)c(Cl)c3)c2[nH]1 [Example 179, 2-(Aminomethyl)-N-(3-chloro-4-fluorophenyl)-N′-hydroxy-1H-imidazo[4,5-b]pyridine-7-carboximidamide]		7660 nM
O/N=C(\Nc1ccc(F)c(Cl)c1)c1cc(F)c(F)c2nc(NCCN3CCC(F)(F)CC3)[nH]c12 [Example 36, N-(3-Chloro-4-fluorophenyl)-2-((2-(4,4-difluoropiperidin-1-yl)ethyl)amino)-4,5-difluoro-N′-hydroxy-1H-benzo[d]imidazole-7-carboximidamide]		712 nM
COCCNc1nc2c(F)c(F)cc(/C(=N/O)Nc3ccc(F)c(Cl)c3)c2[nH]1 [Example 40, N-(3-Chloro-4-fluorophenyl)-4,5-difluoro-N′-hydroxy-2-((2-methoxyethyl)amino)-1H-benzo[d]imidazole-7-carboximidamide]		1520 nM
O/N=C(\Nc1ccc(F)c(Cl)c1)c1ccnc2nc(NCCN3CCC[C@H]3C(F)(F)F)[nH]c12 [Example 481, (S)-N-(3-chloro-4-fluorophenyl)-N′-hydroxy-2-((2-(2-(trifluoromethyl)pyrrolidin-1-yl)ethyl)amino)-1H-imidazo[4,5-b]pyridine-7-carboximidamide]	760 nM	

Second part, the molecule after the results:

EC50 [1]	EC50 [2]	SMILES
939 nM		CN(C)CCCNc1nc2c(F)ccc(/C(=N/O)Nc3ccc(F)c(Cl)c3)c2[nH]1 [Example 388, N-(3-chloro-4-fluorophenyl)-2-((3-(dimethylamino)propyl)amino)-4-fluoro-N′-hydroxy-1H-benzo[d]imidazole-7-carboximidamide]
	2870 nM	CN1CCCCC(Nc2nc3nccc(/C(=N/O)Nc4ccc(F)c(Cl)c4)c3[nH]2)C1 (stereo not drawn) [Example 217, N-(3-chloro-4-fluorophenyl)-N′-hydroxy-2-((1-methylazepan-3-yl)amino)-1H-imidazo[4,5-b]pyridine-7-carboximidamide]
1590 nM		CN(C)C1(CNc2nc3c(F)c(F)cc(/C(=N/O)Nc4ccc(F)c(Cl)c4)c3[nH]2)CCCCC1 [Example 450, N-(3-chloro-4-fluorophenyl)-2-(((1-(dimethylamino)cyclohexyl)methyl)amino)-4,5-difluoro-N′-hydroxy-1H-benzo[d]imidazole-7-carboximidamide]
	302 nM	C#Cc1cccc(N/C(=N\O)c2ccnc3nc[nH]c23)c1 [Example 95, N-(3-ethynylphenyl)-N′-hydroxy-1H-imidazo[4,5-b]pyridine-7-carboximidamide]
	1810 nM	O/N=C(\Nc1ccc(F)c(C2CC2)c1)c1ccnc2nc[nH]c12 [Example 65, N-(3-Cyclopropyl-4-fluorophenyl)-N′-hydroxy-1H-imidazo[4,5-b]pyridine-7-carboximidamide]
	3440 nM	Cn1nccc1CNc1nc2c(F)c(F)cc(/C(=N/O)Nc3ccc(F)c(Cl)c3)c2[nH]1 [Example 299, N-(3-chloro-4-fluorophenyl)-4,5-difluoro-N′-hydroxy-2-(((1-methyl-1H-pyrazol-5-yl)methyl)amino)-1H-benzo[d]imidazole-7-carboximidamide]
	607 nM	Nc1nc2c(F)c(F)cc(/C(=N/O)Nc3cccc(Cl)c3)c2[nH]1 [Example 16, 2-Amino-N-(3-chlorophenyl)-4,5-difluoro-N′-hydroxy-1H-benzo[d]imidazole-7-carboximidamide]
	9560 nM	NS(=O)(=O)CCNc1nc2c(F)c(F)cc(/C(=N/O)Nc3ccc(F)c(Cl)c3)c2[nH]1 [Example 298, N-(3-chloro-4-fluorophenyl)-4,5-difluoro-N′-hydroxy-2-((2-sulfamoylethyl)amino)-1H-benzo[d]imidazole-7-carboximidamide]
	4820 nM	O=C1CCCN1CCNc1nc2nccc(/C(=N/O)Nc3ccc(F)c(Cl)c3)c2[nH]1 [Example 235, N-(3-chloro-4-fluorophenyl)-N′-hydroxy-2-((2-(2-oxopyrrolidin-1-yl)ethyl)amino)-1H-imidazo[4,5-b]pyridine-7-carboximidamide]
	> 10000 nM	COC(=O)NCCc1nc2nccc(/C(=N/O)Nc3ccc(F)c(Cl)c3)c2[nH]1 [Example 273, Methyl (2-(7-(N-(3-chloro-4-fluorophenyl)-N′-hydroxycarbamimidoyl)-1H-imidazo[4,5-b]pyridin-2-yl)ethyl)carbamate]
	844 nM	O/N=C(\Nc1ccc(F)c(Cl)c1)c1ccnc2nc(CCN3CCCCCC3)[nH]c12 [Example 258, 2-(2-(azepan-1-yl)ethyl)-N-(3-chloro-4-fluorophenyl)-N′-hydroxy-1H-imidazo[4,5-b]pyridine-7-carboximidamide]
	> 10000 nM	CS(=O)(=O)NCCc1nc2c(F)c(F)cc(/C(=N/O)Nc3ccc(F)c(Cl)c3)c2[nH]1 [Example 210, N-(3-chloro-4-fluorophenyl)-4,5-difluoro-N′-hydroxy-2-(2-(methylsulfonamido)ethyl)-1H-benzo[d]imidazole-7-carboximidamide]
	979 nM	O/N=C(\Nc1cccc(Br)c1)c1ccnc2nc(CCN3CCCC3)[nH]c12 [Example 269, N-(3-bromophenyl)-N′-hydroxy-2-(2-(pyrrolidin-1-yl)ethyl)-1H-imidazo[4,5-b]pyridine-7-carboximidamide]
> 10000 nM		O/N=C(\Nc1ccc(F)c(Cl)c1)c1cc(F)c(F)c2nc(NCC3CCCNC3)[nH]c12 (stereo not drawn) [Example 304, N-(3-chloro-4-fluorophenyl)-4,5-difluoro-N′-hydroxy-2-((piperidin-3-ylmethyl)amino)-1H-benzo[d]imidazole-7-carboximidamide]
	2230 nM	O/N=C(\Nc1ccc(F)c(Cl)c1)c1ccnc2nc(-c3ccc[nH]3)[nH]c12 [Example 148, N-(3-Chloro-4-fluorophenyl)-N′-hydroxy-2-(1H-pyrrol-2-yl)-1H-imidazo[4,5-b]pyridine-7-carboximidamide]
	1370 nM	O/N=C(\Nc1ccc(F)c(Cl)c1)c1ccnc2nc(CNCc3ccccn3)[nH]c12 [Example 121, N-(3-Chloro-4-fluorophenyl)-N′-hydroxy-2-(((pyridin-2-ylmethyl)amino)methyl)-1H-imidazo[4,5-b]pyridine-7-carboximidamide]
	793 nM	O/N=C(\Nc1ccc(F)c(Cl)c1)c1ccc(Cl)c2nc[nH]c12 [Example 6, 4-Chloro-N-(3-chloro-4-fluorophenyl)-N′-hydroxy-1H-benzo[d]imidazole-7-carboximidamide]

Reference: patent US9951065B2 (Gilead Sciences, Inc., priority 2015, dated 2018)
